Measured values: patent US9945845B2, “Methods of screening using amphibians” (priority 2009, dated 2018)
Entries after “also recorded” stand apart in the source; their conditions may differ. Read-outs that look alike come from different tables or passages of the source.

Legend:
[1] = system: blood vessel development and/or lymphangiogenesis in Xenopus embryos; assay type: in vivo, Xenopus laevis; details: for blood vessel development phenotype (apj expression, in words): 20 μM from stage 31, fixed at stage 35/36; for lymph vessel development phenotype (vegfr3 expression, in words): 20 μM from stage 31, fixed at stage 42; for ALH phenotype: anterior lymph heart; for ALS phenotype: anterior lymph sac; for ISV phenotype: intersomitic vessels; for PCV phenotype: posterior cardinal vein; for PLV phenotype: posterior lymph vessels; for VVN phenotype: vitelline vein network
Description: All chemicals were purchased from Sigma and 10-mM stock solutions in DMSO were prepared. Chemicals were used at a final concentration of 20 μM in screening medium to treat homozygous albino Xenopus embryos, which lack natural pigmentation. Chemical treatments of embryos (n=7 per well) was initiated at stage 31 (37 hpf) and terminated at stages 35/36 (50 hpf) or 42 (80 hpf). Embryos were fixed in 4% paraformaldehyde and processed for whole mount in situ hybridization.
Where albino embryos were used, the bleaching step was omitted. Semi-automated whole mount in situ hybridizations were performed using the Biolane HTI machine (Hölle & Hüttner AG, Germany). […] Images were captured using a stereomicroscope (SteREO Lumar V12; Carl Zeiss) equipped with a digital camera (AxioCam Color; Carl Zeiss). Composite figures were organized and labeled using Adobe Photoshop CS2 and Adobe Illustrator CS software.
Edema formation or late-stage lethality may result from excretory system defects, (cardio)vascular and/or lymphatic vascular pathologies. […] Embryos were fixed for in situ hybridization either at stage 35/36 to analyze vasculogenesis and intersomitic vein angiogenesis defects or at stage 42 to evaluate possible defects in lymph vessel development (FIGS. 3-5).

LEC [2] = experiment: LEC cell proliferation assay; assay type: cell-based, human; details: 10 μM in 0.1% DMSO, 48 hours; for activity at 10 µM: Homo sapiens, 48 h, read-out: LEC proliferation
Description: (§1) Human umbilical vein endothelial cells (HUVEC) were purchased from PromoCell. […] HUVEC and LEC were cultured in endothelial basal medium EBM (Cambrex) supplemented with 20% fetal bovine serum (Invitrogen), antibiotic-antimycotics (100 U/ml penicillin, 100 μg/ml streptomycin, 250 ng/ml amphotericin; Invitrogen). 2 mM L-glutamine (Invitrogen), 10 μg/ml hydrocortisone (Fluka) and 25 μg/ml N^6,2′-O-dibutyryladenosine 3′,5′-cyclic monophosphate sodium salt (Fluka) for up to eleven passages.
(§2) The intensity of fluorescence, which is proportional to the number of viable cells, was measured using a microplate reader (SpectraMax Gemini EM; Molecular Devices). The chemical treatments were performed in five replicates.
(§3) The cell proliferation assays were performed by treating the endothelial cell cultures with compounds at a screening dose of 10 μM in 0.1% DMSO for 48 hours (FIG. 6a; Table 10).

HUVEC [3] = experiment: HUVEC cell proliferation assay; assay type: cell-based, human; details: 10 μM in 0.1% DMSO, 48 hours; for activity at 10 µM: Homo sapiens, HUVEC, 48 h, read-out: HUVEC proliferation
Description: as §1, §2, §3

Xenopus embryos = details: for Lethality: — = no stage of lethality given; for Type of edema Ventral: ‡ = edemas also detected in the gut; for Onset (NF): onset of edema; for Embr. phen.: embryonic phenotype in the primary screen
Outline: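 Stage 31 (37 hpf) Xenopus embryos, five per well, exposed to 20 µM compound in 1% DMSO at 23 °C for 4 days. Edema, lethality and other external phenotypes were scored daily by two investigators at stages 39, 41, 45 and 47.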

LEC [4] = experiment: cells; assay type: cell-based, human; details: for activity at 1 µM: Homo sapiens
Description: as §1
(§4) The effect of the selected chemicals on the formation of tube-like structures was performed as follows. […] After overnight incubation at 37° C. the treated cell cultures were fixed with 4% paraformaldehyde. Each chemical treatment was performed in triplicate and the experiment was repeated at least three times. Three representative images of hotspots with tube-like structures were taken per well using a digital camera (AxioCam MRm, Carl Zeiss) mounted on an inverted microscope (Axiovert 200M, Carl Zeiss). The length of the tube-like structures was measured using the IPLab software (BD Biosciences). For each experimental condition, results are represented as average total tube length (μm) per area (three image fields).
(§5) The effects of the selected compounds on endothelial tube formation was assessed after over treatment of LEC and HUVEC cultures at a compound concentration of 1 μM in 0.1% DMSO. The length of the tube-like structures was measured using the IPLab software.

HUVEC [5] = experiment: HUVEC tube formation assay; assay type: cell-based, human; details: 1 μM in 0.1% DMSO; for activity at 1 µM: Homo sapiens, HUVEC
Description: as §1, §4, §5

[6] = compounds causing edema, 20 μM, 1% DMSO, treatment from stage 31, scored to stage 47
[7] = 20 μM, 1% DMSO, treatment from stage 31, Nieuwkoop & Faber stage
[8] = 1 μM in 0.1% DMSO, overnight, read-out: LEC tube formation
[9] = 1 μM in 0.1% DMSO, read-out: LEC tube formation (tube length)
[10] = overnight, read-out: HUVEC tube formation
[11] = read-out: HUVEC tube formation (tube length)
[12] = 20 μM, 1% DMSO, treatment from stage 31

Row | SMILES | blood vessel development phenotype (apj expression, in words) [1] | activity at 10 µM (LEC [2]) [%] | activity at 10 µM (HUVEC [3]) [%] | Lethality (NF) (Xenopus embryos; [6]) | Type of edema Pericordial (Xenopus embryos; embryonic stage) | Lethality (Xenopus embryos; embryonic stage) | Type of edema Ventral (Xenopus embryos; embryonic stage) | Onset (NF) (Xenopus embryos; [7]) | activity at 1 µM (LEC [4]; [8]) [%] | activity at 1 µM (LEC [4]; [9]) [%] | activity at 1 µM (HUVEC [5]; [10]) [%] | activity at 1 µM (HUVEC [5]; [11]) [%] | Type of edema Pronephric (Xenopus embryos; embryonic stage) | LEC tube formation (LEC [4]; 1 μM in 0.1% DMSO, overnight) | HUVEC tube formation (HUVEC [5]; overnight) | HUVEC proliferation (HUVEC [3]) | effect on LEC tube formation (in words) (LEC [4]; 1 μM in 0.1% DMSO) | LEC proliferation (LEC [2]) | also measured
1 | CCn1c(=O)c2[nH]c(-c3ccccc3)nc2n(CC)c1=O [1,3-Diethyl-8-phenylxanthine] | hyperplasia of the VVN, while ISV angiogenesis occurred unaffected | 85 to 115 | 85 to 115 | 45 NF | 41/42 | 45 embryonic stages according to Nieuwkoop and Faber (NF) | 41/42 | 41/42 | 85 to 115 | 90 | 115 to 150 | 123 |  |  |  |  |  |  | lymph vessel development phenotype (vegfr3 expression, in words) [1]: lymphangiogenesis was largely suppressed; ALH phenotype ([1]; Xenopus embryos): stunted; ALS phenotype ([1]; Xenopus embryos): stunted; ISV phenotype ([1]; Xenopus embryos): normal; PCV phenotype ([1]; Xenopus embryos): normal; PLV phenotype ([1]; Xenopus embryos): hypoplastic; VVN phenotype ([1]; Xenopus embryos): hyperplastic
2 | CCOC(=O)C1=C(C)NC(C)=C(C(=O)OC)C1c1cccc(Cl)c1Cl (stereo not drawn) [Felodipine] |  | 85 to 115 | 85 to 115 | 45 NF | 41/42 | 45 embryonic stages according to Nieuwkoop and Faber (NF) | 41/42 | 41/42 | 85 to 115 |  | 50 to 85 |  | 41/42 |  |  |  |  |  | 
3 | CN(C)c1cc2c(Nc3ccc4c(cnn4Cc4ccccc4)c3)ncnc2cn1 [GW2974, N4-(1-Benzyl-1H-indazol-5-yl)-N6,N6-dimethyl-pyrido[3,4-d)pyrimidine4-4,6-diamine] |  |  |  | 47 NF | 41/42 | 47 embryonic stages according to Nieuwkoop and Faber (NF) | 41/42 | 41/42 |  |  |  |  |  | − (−, moderate inhibition (50-85% of control):) | − (−, moderate inhibition (50-85% of control):) |  |  |  | lymph vessel development phenotype (vegfr3 expression, in words) [1]: inhibiting preferentially lymphatic vascular development; also recorded: lymphangiogenesis was largely suppressed; Blood vessel phenotype ([1]; Xenopus embryos): normal; ALH phenotype ([1]; Xenopus embryos): stunted; ALS phenotype ([1]; Xenopus embryos): impaired; PLV phenotype ([1]; Xenopus embryos): hypoplastic; edema or other phenotype in compound-treated Xenopus embryos/tadpoles (in words) (Xenopus embryos; [12]): enlarged lymph hearts; Embr. phen. (Xenopus embryos): EDE; Lymph heart enlargement (Xenopus embryos; embryonic stage): 45 embryonic stages according to Nieuwkoop and Faber (NF); Type of edema Periocular (Xenopus embryos; embryonic stage, * = causing bulging eyes, # = bilateral, causing narrow-set eyes): 41/42
4 | O=C1Nc2ccc(I)cc2C1=Cc1cc(Br)c(O)c(Br)c1 [GW5074, 3-(3,5-Dibromo-4-hydroxybenzylidine-5-iodo-1,3-dihydro-indol-2-one)] | promoting ectopic, premature angiogenesis; also recorded: the VVN was dysplastic |  |  | 41/42 | 33/34 | 41/42 |  | 33/34 |  |  |  |  |  | − (−, moderate inhibition (50-85% of control):) | O (O, inactive or marginal effects (85-115% of control);) | O (O, inactive or marginal effects (85-115% of control);) | preferentially blocked tube formation in LEC rather than HUVEC cultures |  | ISV phenotype ([1]; Xenopus embryos): ectopic; PCV phenotype ([1]; Xenopus embryos): normal; VVN phenotype ([1]; Xenopus embryos): dyspiastic; Embr. phen. (Xenopus embryos): EDE
5 | O=Nc1c(-c2c(O)[nH]c3ccccc23)[nH]c2ccccc12 [Indirubin-3′-oxime] |  | 85 to 115 | 50 to 85 |  |  |  |  |  |  |  | 50 to 85 |  |  |  |  |  |  |  | Lethality (NF) (Xenopus embryos; Xenopus laevis, in vivo): 45 NF; scored in the phenotypic Xenopus screens (Xenopus embryos; in vivo): active; activity at 1 µM (LEC [4]; read-out: LEC tube formation): 85 to 115%
6 | Cl.c1ccc(CN2CCC3(CCCc4ccccc43)CC2)cc1 [L-687, 384 hydrochloride] | did not affect vascular development |  |  |  |  |  |  |  |  |  |  |  |  | − (−, moderate inhibition (50-85% of control):) | − (−, moderate inhibition (50-85% of control):) | + (+, moderate promotion (>115-150% of control).) |  | O (O, inactive or marginal effects (85-115% of control);) | 
7 | C#CCN1C(C)=C(C(=O)OC)C(c2cccc([N+](=O)[O-])c2)C(C(=O)OCC)=C1C (stereo not drawn) [MRS 1845, N-Propargylnitrendipene] |  |  |  | 45 NF | 41/42 | 45 embryonic stages according to Nieuwkoop and Faber (NF) | 41/42 | 41/42 |  |  |  |  | 41/42 | − (−, moderate inhibition (50-85% of control):) | O (O, inactive or marginal effects (85-115% of control);) |  | preferentially blocked tube formation in LEC rather than HUVEC cultures | O (O, inactive or marginal effects (85-115% of control);) | edema or other phenotype in compound-treated Xenopus embryos/tadpoles (in words) (Xenopus embryos; [12]): enlarged lymph hearts; Lymph heart enlargement (Xenopus embryos; embryonic stage): 41/42
8 | CC1=C(/C=C/C(C)=C/C=C/C(C)=C/C(=O)O)C(C)(C)CCC1 [Retinoic acid] |  | 115 to 150 | 115 to 150 | 40 NF |  | 39 embryonic stages according to Nieuwkoop and Faber (NF) |  |  | 50 to 85 | 50 to 85 | 50 to 85 | 50 to 85 | 39 embryonic stages according to Nieuwkoop and Faber (NF) |  |  | + (+, moderate promotion (>115-150% of control).) |  | + (+, moderate promotion (>115-150% of control).) | Type of edema Proctodeal (Xenopus embryos; embryonic stage): 40 embryonic stages according to Nieuwkoop and Faber (NF); Type of edema Cerebral (Xenopus embryos; embryonic stage, + = cerebral edema extending dorso-anteriorly and displacing the eyes): 39+ embryonic stages according to Nieuwkoop and Faber (NF)
9 | Oc1c2ccccc2c2c3c(cccc13)N=N2 [SP600125, 1,9-Pyrazoloanthrone] |  | 85 to 115 | 85 to 115 |  |  |  |  |  | 50 to 85 | 59 | 85 to 115 | 110 |  |  |  |  |  |  | Lethality (NF) (Xenopus embryos; compounds causing lethality, 20 μM, 1% DMSO, treatment from stage 31, Nieuwkoop & Faber stage): 41 NF
10 | CC[C@@H]1/C=C/C=C/C[C@H](C)[C@H](O)[C@](C)(O)C(=O)[C@H](C)[C@@H](O)[C@H](C)C(=O)[C@H](C)[C@@H](O)[C@H](C)/C=C/C(=O)O[C@H]2[C@@H](C)[C@@H](CC1)O[C@@]1(CC[C@@H](C)[C@@H](C[C@H](C)O)O1)[C@@H]2C [oligomycin A] |  |  |  |  |  |  |  |  |  |  |  |  |  |  |  |  | preferentially blocked tube formation in LEC rather than HUVEC cultures |  | 
